# Patent publication US12435061B2 (priority 2020, dated 2025)
# Counter-ions that a name gives are not always drawn. Like-named read-outs stand apart in the source and are kept apart here.
# Experiments:
# [1] = target: hTRPV3 (Homo sapiens (Human), UniProt Q8NET8); experiment: Whole-cell patch clamp, hTRPV3 Phase 1 / Phase 2 currents; assay type: cell-based
# Outline: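 Whole-cell recordings on induced TRPV3 cells replated on coverslips, held at −40 mV with 400 ms ramps from −120 to +100 mV every 5 s; currents read at −80 and +80 mV. Ringer's external solution; current activated by heating to ≥28 °C or 20 μM 2-APB.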
# [2] = Aqueous solubility assay in Normal Ringer Solution; details: Normal Ringer Solution; for solubility at 40 min: saline or isotonic, kinetic from dmso stock; for Solubility Ringer (nM): room temperature
# Procedure: Following vortex and incubation for a sufficient time (e.g. 40 minutes at room temperature), solutions were filtered, quenched with acetonitrile, and analyzed by Liquid Chromotography. Solubility Limits were determined by comparison to a standard curve.
# [3] = Phase 1 current, inward, whole-cell patch clamp, read-out: hTRPV3 Patch P1 Inwd
# [4] = Phase 1 current, read-out: hTRPV3 (nM) (Phase 1)
# [5] = Phase 2 current, inward, whole-cell patch clamp, read-out: hTRPV3 Patch P2 Inwd
# [6] = Phase 2 current, read-out: hTRPV3 (nM) (Phase 2)
# hTRPV3, sequence (Q8NET8 whole entry): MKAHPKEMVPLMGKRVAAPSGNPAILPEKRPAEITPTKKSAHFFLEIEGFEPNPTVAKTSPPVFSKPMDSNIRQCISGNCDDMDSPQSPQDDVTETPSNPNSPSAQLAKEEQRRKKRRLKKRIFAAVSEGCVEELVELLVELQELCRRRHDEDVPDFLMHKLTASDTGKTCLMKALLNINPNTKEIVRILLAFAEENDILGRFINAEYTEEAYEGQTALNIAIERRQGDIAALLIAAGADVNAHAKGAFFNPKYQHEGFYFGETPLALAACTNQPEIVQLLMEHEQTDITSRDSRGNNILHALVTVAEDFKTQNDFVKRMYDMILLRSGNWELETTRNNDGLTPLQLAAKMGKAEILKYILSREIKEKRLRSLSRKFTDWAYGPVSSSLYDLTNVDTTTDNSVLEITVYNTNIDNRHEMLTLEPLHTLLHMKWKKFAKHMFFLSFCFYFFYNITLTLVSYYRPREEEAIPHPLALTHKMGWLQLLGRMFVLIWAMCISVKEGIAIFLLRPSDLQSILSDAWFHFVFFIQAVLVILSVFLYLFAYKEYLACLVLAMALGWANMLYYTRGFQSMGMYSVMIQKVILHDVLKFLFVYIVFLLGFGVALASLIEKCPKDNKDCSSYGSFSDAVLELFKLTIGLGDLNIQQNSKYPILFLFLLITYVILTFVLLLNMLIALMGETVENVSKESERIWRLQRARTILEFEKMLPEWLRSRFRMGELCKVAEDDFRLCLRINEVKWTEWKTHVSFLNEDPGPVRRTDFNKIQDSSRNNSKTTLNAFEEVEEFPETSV
Structure (SMILES),"IC50 [1, 3]","IC50 [1, 4]","IC50 [1, 5]","IC50 [1, 6]",solubility at 40 min [2],also measured
"NC(=O)c1cc(-c2ccccn2)ccc1N1CC[C@H](Oc2ccc(C(F)(F)F)cn2)C1 [Compound 1-81, (S)-5-(pyridin-2-yl)-2-(3-(5-(trifluoromethyl)pyridin-2-yloxy)pyrrolidin-1-yl)benzamide]",> 1000 nM,> 3200 nM,> 1000 nM,2190 nM,~1.4 µM,
"NC(=O)c1cc(-c2ccncc2)ccc1N1CC[C@H](Oc2ccc(C(F)(F)F)cn2)C1 [Compound 1-83, (S)-5-(pyridin-4-yl)-2-(3-(5-(trifluoromethyl)pyridin-2-yloxy)pyrrolidin-1-yl)benzamide]",> 1000 nM,2840 nM,> 1000 nM,3350 nM,> 3.9 µM,
N#Cc1cc(-c2ccccc2)ncc1N1CC[C@@H](Oc2ccc(C(F)(F)F)cn2)C1 [Compound 1-94],,,,~117 nM,,"hTRPV3 (nM) (Phase 2) ([1]; Phase 2 current): Incomplete Block; IC50 ([1]; Phase 2 current, inward, numeric value printed in cell (flagged), read-out: hTRPV3 Patch P2 Inwd): ~117 nM; Solubility Ringer (nM) [2]: BLQ"
NS(=O)(=O)c1cc(-c2ccccc2)ccc1N1CC[C@@H](Oc2ccc(C(F)(F)F)cn2)C1 [Compound 1-102],> 1000 nM,,> 1000 nM,,~0.23 µM,
"NCc1cc(-c2ccccc2)ccc1N1CC[C@@H](Oc2ccc(C(F)(F)F)cn2)C1 [Compound 1-109, (R)-(4-(3-(5-(trifluoromethyl)pyridin-2-yloxy)pyrrolidin-1-yl)biphenyl-3-yl)methanamine hydrochloride]",,,,,> 2.95 µM,IC50 ([1]; hTRPV3 Patch P1 Inwd (nM)): > 1000 nM; IC50 ([1]; hTRPV3 Patch P2 Inwd (nM)): > 1000 nM; IC50 ([1]; read-out: hTRPV3 (nM) (Phase 1)): 1870 nM; IC50 ([1]; read-out: hTRPV3 (nM) (Phase 2)): 1930 nM
"OCc1cc(-c2ccccc2)ccc1N1CC[C@@H](Oc2ccc(C(F)(F)F)cn2)C1 [Compound 1-110, (R)-(4-(3-(5-(trifluoromethyl)pyridin-2-yloxy)pyrrolidin-1-yl)biphenyl-3-yl)methanol]",100 to 1000 nM,710 nM,100 to 1000 nM,685 nM,,Solubility Ringer (nM) [2]: BLQ
"N#Cc1ccc(O[C@H]2CCN(c3ccc(-c4ccccc4)cc3CO)C2)nc1 [Compound 1-143, (S)-6-(1-(3-(hydroxymethyl)biphenyl-4-yl)pyrrolidin-3-yloxy)nicotinonitrile]",100 to 1000 nM,337 nM,,,1.4 µM,
N#Cc1ccccc1-c1ccc(N2CC[C@H](Oc3ccc(C(F)(F)F)cn3)C2)c(CO)c1 [Compound 1-155],100 to 1000 nM,,,,,Solubility Ringer (nM) [2]: BLQ
OCc1cc(-c2ccccc2)ncc1N1CC[C@H](Oc2ccc(C(F)(F)F)cn2)C1 [Compound 1-158],100 to 1000 nM,773 nM,100 to 1000 nM,747 nM,~2 µM,
"NC(=O)c1ccccc1-c1ccc(N2CC[C@H](Oc3ccc(C(F)(F)F)cn3)C2)c(CO)c1 [Compound 1-159, (S)-3′-(hydroxymethyl)-4′-(3-(5-(trifluoromethyl)pyridin-2-yloxy)pyrrolidin-1-yl)biphenyl-2-carboxamide]",> 1000 nM,> 3200 nM,> 1000 nM,> 3200 nM,> 16.6 µM,
"CN(C)C(=O)c1ccccc1-c1ccc(N2CC[C@H](Oc3ccc(C(F)(F)F)cn3)C2)c(CO)c1 [Compound 1-167, (S)-3′-(hydroxymethyl)-N,N-dimethyl-4′-(3-(5-(trifluoromethyl)pyridin-2-yloxy)pyrrolidin-1-yl)biphenyl-2-carboxamide]",> 1000 nM,~1290 nM,> 1000 nM,> 3200 nM,> 12.6 µM,
"CC(O)c1ccccc1-c1ccc(N2CC[C@H](Oc3ccc(C(F)(F)F)cn3)C2)c(CO)c1 (stereo partly drawn) [Compound 1-171, 1-(3′-(hydroxymethyl)-4′-((S)-3-(5-(trifluoromethyl)pyridin-2-yloxy)pyrrolidin-1-yl)biphenyl-2-yl)ethanol]",100 to 1000 nM,740 nM,100 to 1000 nM,636 nM,> 5.35 µM,
"OCc1ccccc1-c1ccc(N2CC[C@H](Oc3ccc(C(F)(F)F)cn3)C2)c(CO)c1 [Compound 1-174, (S)-(4′-(3-(5-(trifluoromethyl)pyridin-2-yloxy)pyrrolidin-1-yl)biphenyl-2,3′-diyl)dimethanol]",100 to 1000 nM,> 320 nM,> 1000 nM,> 3200 nM,> 0.67 µM,
OC[C@@H]1C[C@@H](Oc2ccc(C(F)(F)F)cn2)CN1c1ccc(-c2ccccc2)cc1 [Compound 1-175],> 1000 nM,> 3200 nM,> 1000 nM,> 3200 nM,~0.68 µM,
"N#Cc1ccccc1-c1ccc(N2CC[C@H](Oc3ccc(C(F)(F)F)cn3)C2)c(CO)n1 [Compound 1-197, (S)-2-(6-(hydroxymethyl)-5-(3-(5-(trifluoromethyl)pyridin-2-yloxy)pyrrolidin-1-yl)pyridin-2-yl)benzonitrile]",10 to 100 nM,~38.5 nM,,,~0.4 µM,
"Cc1ccc(O[C@H]2CCN(c3ccc(Oc4ccccc4C)nc3CO)C2)nc1 [Compound 1-203, (S)-(3-(3-(5-methylpyridin-2-yloxy)pyrrolidin-1-yl)-6-(o-tolyloxy)pyridin-2-yl)methanol]",> 1000 nM,~5050 nM,> 1000 nM,3270 nM,~1.4 µM,
"CCc1ccccc1-c1ccc(N2CC[C@H](Oc3ncccc3F)C2)c(CO)n1 [Compound 1-204, (S)-(6-(2-ethylphenyl)-3-(3-(3-fluoropyridin-2-yloxy)pyrrolidin-1-yl)pyridin-2-yl)methanol]",> 1000 nM,2670 nM,,,> 1.8 µM,
"COc1ccccc1-c1ccc(N2CC[C@H](Oc3ccc(F)cn3)C2)c(CO)n1 [Compound 1-209, (S)-(3-(3-(5-fluoropyridin-2-yloxy)pyrrolidin-1-yl)-6-(2-methoxyphenyl)pyridin-2-yl)methanol]",> 1000 nM,3470 nM,,,~2.3 µM,
"OCc1cc(Oc2cccc(Cl)c2)ccc1N1CC[C@H](Oc2ncccc2Cl)C1 [Compound 1-248, (S)-(5-(3-chlorophenoxy)-2-(3-(3-chloropyridin-2-yloxy)pyrrolidin-1-yl)phenyl)methanol]",10 to 100 nM,12.3 nM,,,,Solubility Ringer (nM) [2]: BLQ
"OCc1cc(Oc2ccc(Cl)cc2)ccc1N1CC[C@H](Oc2ncccc2Cl)C1 [Compound 1-249, (S)-(5-(4-chlorophenoxy)-2-(3-(3-chloropyridin-2-yloxy)pyrrolidin-1-yl)phenyl)methanol]",10 to 100 nM,22.1 nM,,,,Solubility Ringer (nM) [2]: BLQ
"Cc1ccc(Oc2ccc(N3CC[C@H](Oc4ncccc4Cl)C3)c(CO)c2)cc1 [Compound 1-250, (S)-(2-(3-(3-chloropyridin-2-yloxy)pyrrolidin-1-yl)-5-(p-tolyloxy)phenyl)methanol]",< 10 nM,8.42 nM,,,~0.1 µM,
"CCc1ccccc1C(O)c1ccc(N2CC[C@H](Oc3ncccc3Cl)C2)c(CO)c1 (stereo partly drawn) [Compound 1-257, (4-((S)-3-(3-chloropyridin-2-yloxy)pyrrolidin-1-yl)-3-(hydroxymethyl)phenyl)(2-ethylphenyl)methanol]",100 to 1000 nM,1060 nM,> 1000 nM,1110 nM,> 6.6 µM,
"CC(C)(C)OC(=O)N1CC=C(c2ccc(N3CC[C@H](Oc4ccc(C(F)(F)F)cn4)C3)c(CO)c2)CC1 [Compound 1-272, (S)-tert-butyl 4-(3-(hydroxymethyl)-4-(3-(5-(trifluoromethyl)pyridin-2-yloxy)pyrrolidin-1-yl)phenyl)-5,6-dihydropyridine-1 (2H)-carboxylate]",> 1000 nM,> 3200 nM,,,,Solubility Ringer (nM) [2]: BLQ
"CC(C)(C)OC(=O)N1CCC(c2ccc(N3CC[C@H](Oc4ccc(C(F)(F)F)cn4)C3)c(CO)c2)CC1 [Compound 1-273, (S)-tert-butyl 4-(3-(hydroxymethyl)-4-(3-(5-(trifluoromethyl)pyridin-2-yloxy)pyrrolidin-1-yl)phenyl)piperidine-1-carboxylate]",> 1000 nM,> 3200 nM,,,,Solubility Ringer (nM) [2]: BLQ
OCc1cc(-c2ccccc2)ccc1N1CC[C@H](Oc2ccccn2)C1 [Compound 1-274],100 to 1000 nM,241 nM,,,~5.5 µM,
"OCc1cc([C@H](O)c2ccccc2Cl)ccc1N1CC[C@H](Oc2ncccc2F)C1 [Compound 1-322, (2-chlorophenyl)(4-((S)-3-(3-fluoropyridin-2-yloxy)pyrrolidin-1-yl)-3-(hydroxymethyl)phenyl)methanol]",100 to 1000 nM,794 nM,,,> 9.3 µM,
"COc1ccccc1Oc1ccc(N2CC[C@H](Oc3ncccc3C)C2)c(CO)c1 [Compound 1-340, (S)-(5-(2-methoxyphenoxy)-2-(3-(3-methylpyridin-2-yloxy)pyrrolidin-1-yl)phenyl)methanol]",10 to 100 nM,70.1 nM,10 to 100 nM,74.4 nM,~2.4 µM,
"OCc1cc(Oc2ccccc2)ccc1N1CC[C@H](Nc2ncccc2Cl)C1 [Compound 1-381, (S)-(2-(3-(3-chloropyridin-2-ylamino)pyrrolidin-1-yl)-5-phenoxyphenyl)methanol]",10 to 100 nM,23.3 nM,,,> 1.6 µM,
